Experimental data as given in ChEMBL document CHEMBL1140387, “1-Aryl-3,4-dihydro-1H-quinolin-2-one derivatives, novel and selective norepinephrine reuptake inhibitors” (Bioorg Med Chem Lett, 2005).

Key:
[1] = target: T1, Sodium-dependent dopamine transporter (Homo sapiens, UniProt Q01959); assay: Percentage displacement of [3H]WIN-35428 radioligand from dopamine transporter at concentration of 1000 nM
[2] = target: T2, Sodium-dependent serotonin transporter (Homo sapiens, UniProt P31645); assay: Percentage displacement of [3H]citalopram radioligand from serotonin transporter at concentration of 100 nM
Target sequence in this assay (P31645 whole entry, looked up): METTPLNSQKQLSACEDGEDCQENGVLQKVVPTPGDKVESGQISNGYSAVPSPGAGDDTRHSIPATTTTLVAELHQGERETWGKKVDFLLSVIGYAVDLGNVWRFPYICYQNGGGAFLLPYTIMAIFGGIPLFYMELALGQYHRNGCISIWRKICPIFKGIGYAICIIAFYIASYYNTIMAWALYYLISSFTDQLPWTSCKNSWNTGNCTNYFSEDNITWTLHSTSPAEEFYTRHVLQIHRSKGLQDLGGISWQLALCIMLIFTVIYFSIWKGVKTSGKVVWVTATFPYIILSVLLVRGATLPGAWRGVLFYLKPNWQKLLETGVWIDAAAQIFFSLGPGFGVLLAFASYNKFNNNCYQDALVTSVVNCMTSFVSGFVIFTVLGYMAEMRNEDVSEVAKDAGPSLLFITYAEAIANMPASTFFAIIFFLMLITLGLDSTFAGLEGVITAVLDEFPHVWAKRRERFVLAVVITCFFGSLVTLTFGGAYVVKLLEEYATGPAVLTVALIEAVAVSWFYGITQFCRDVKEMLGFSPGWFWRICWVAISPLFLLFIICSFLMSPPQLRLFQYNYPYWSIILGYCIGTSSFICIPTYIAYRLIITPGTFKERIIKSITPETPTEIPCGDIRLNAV

[3] = target: T1, Sodium-dependent dopamine transporter; assay: Inhibition of monoamine reuptake at dopamine transporter
[4] = target: T2, Sodium-dependent serotonin transporter; assay: Inhibition of monoamine reuptake at serotonin transporter
Target sequence in this assay (P31645 whole entry): as the sequence (P31645 whole entry, looked up) above

[5] = target: T3, Sodium-dependent noradrenaline transporter (Homo sapiens, UniProt P23975); assay: Inhibition of monoamine reuptake at norepinephrine transporter
T3 sequence (P23975 whole entry): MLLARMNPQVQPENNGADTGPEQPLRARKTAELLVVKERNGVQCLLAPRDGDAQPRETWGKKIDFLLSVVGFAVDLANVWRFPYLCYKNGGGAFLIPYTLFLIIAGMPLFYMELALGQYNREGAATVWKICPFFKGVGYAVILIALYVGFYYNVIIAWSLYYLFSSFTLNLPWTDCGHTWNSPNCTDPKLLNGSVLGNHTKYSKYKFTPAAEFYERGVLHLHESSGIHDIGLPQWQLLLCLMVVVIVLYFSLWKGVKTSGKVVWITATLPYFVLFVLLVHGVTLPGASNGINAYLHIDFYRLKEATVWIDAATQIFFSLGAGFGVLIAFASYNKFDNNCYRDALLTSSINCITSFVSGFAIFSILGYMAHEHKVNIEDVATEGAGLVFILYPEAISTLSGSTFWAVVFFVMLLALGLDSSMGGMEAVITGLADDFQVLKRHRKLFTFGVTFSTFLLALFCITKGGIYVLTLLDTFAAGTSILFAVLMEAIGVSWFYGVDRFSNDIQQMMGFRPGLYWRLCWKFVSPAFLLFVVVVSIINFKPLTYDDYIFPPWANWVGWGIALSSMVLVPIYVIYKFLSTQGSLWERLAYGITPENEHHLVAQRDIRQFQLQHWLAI

[6] = target: T3, Sodium-dependent noradrenaline transporter; assay: Percentage displacement of [3H]nisoxetine radioligand from norepinephrine transporter at concentration of 1000 nM

T1 sequence (Q01959 whole entry): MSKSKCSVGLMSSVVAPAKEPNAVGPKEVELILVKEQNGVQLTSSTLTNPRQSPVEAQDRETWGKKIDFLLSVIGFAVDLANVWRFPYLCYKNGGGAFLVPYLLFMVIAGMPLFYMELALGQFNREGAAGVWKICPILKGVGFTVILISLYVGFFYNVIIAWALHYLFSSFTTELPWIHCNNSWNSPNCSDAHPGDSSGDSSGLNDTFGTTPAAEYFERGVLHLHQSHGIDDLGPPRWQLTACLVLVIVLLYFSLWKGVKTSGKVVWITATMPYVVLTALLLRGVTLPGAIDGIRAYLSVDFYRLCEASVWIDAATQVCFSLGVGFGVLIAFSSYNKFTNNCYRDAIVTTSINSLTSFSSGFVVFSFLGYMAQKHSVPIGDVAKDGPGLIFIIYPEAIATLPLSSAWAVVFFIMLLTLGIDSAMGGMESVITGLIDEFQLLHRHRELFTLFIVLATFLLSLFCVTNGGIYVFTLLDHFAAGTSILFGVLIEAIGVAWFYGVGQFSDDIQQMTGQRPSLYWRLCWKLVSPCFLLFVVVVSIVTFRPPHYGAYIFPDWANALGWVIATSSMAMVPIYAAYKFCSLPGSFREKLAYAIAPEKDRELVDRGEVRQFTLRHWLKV

Activity [1] [%] | Activity [2] [%] | Ki [3] [nM] | Ki [4] [nM] | Ki [5] [nM] | SMILES | Activity [6] [%]
50 | 8 | > 200 | > 100 | 21 | CNCCCC1Cc2ccccc2N(c2ccc(Cl)cc2)C1=O (centres undefined) | –
10 | 9 | > 200 | > 100 | 44 | CNCCCC1(C)Cc2ccccc2N(c2ccccc2)C1=O (racemic) | –
64 | 7 | > 200 | > 100 | 79 | CNCCCC1Cc2ccccc2N(c2cccc(Cl)c2)C1=O (racemic) | –
5 | 45 | > 200 | > 100 | 5 | CNCCCC1Cc2cc(F)ccc2N(c2ccc(C)cc2)C1=O (racemic) | –
5 | 7 | > 200 | > 100 | 92 | CNCCCC1Cc2ccccc2N(c2ccc(F)cc2)C1=O (racemic) | –
18 | – | > 200 | – | 8 | CCCCC1(CCCNC)Cc2ccccc2N(c2ccc(C)cc2)C1=O (racemic) | –
– | – | > 200 | > 100 | 10 | CNCCCC1Cc2ccccc2N(c2ccccc2)C1=O (racemic) [listing 1 of 2 here] | –
10 | 9 | > 200 | > 100 | 18 | CNCCCC1Cc2ccccc2N(c2cccc(F)c2)C1=O (racemic) | –
11 | 11 | > 200 | > 100 | 17 | CCC1(CCCNC)Cc2ccccc2N(c2ccc(C)cc2)C1=O (racemic) | –
6 | 12 | > 200 | > 100 | 10 | CCC1(CCCNC)Cc2ccccc2N(c2ccccc2)C1=O (racemic) | –
50 | 11 | > 200 | > 100 | 77 | CNCCCC1(C)Cc2ccccc2N(c2ccc(F)c(F)c2)C1=O (racemic) | –
19 | 15 | > 200 | > 100 | 3 | CNCCCC1Cc2ccccc2N(c2ccc(C)cc2)C1=O (racemic) | –
9 | 3 | > 200 | > 100 | 150 | CCc1ccc(N2C(=O)C(CCCNC)Cc3ccccc32)cc1 (racemic) | –
3 | 12 | > 200 | > 100 | 9 | CNCCCC1(C)Cc2ccccc2N(c2ccc(C)cc2)C1=O (racemic) | –
– | 15 | – | > 100 | 43 | CNCCCC1(C)Cc2cc(Cl)ccc2N(c2ccc(C)cc2)C1=O (racemic) | –
– | 8 | 13 | > 100 | 62 | CNCCCC1Cc2ccccc2N(c2ccc(Cl)c(Cl)c2)C1=O (racemic) | –
19 | 9 | > 200 | > 100 | 165 | CNCCCC1(C)Cc2ccccc2N(c2cc(F)cc(F)c2)C1=O (racemic) | –

Activity [1] [%] | Activity [2] [%] | Ki [3] [nM] | Ki [4] [nM] | Ki [5] [nM] | SMILES | Activity [6] [%]
3 | 51 | > 200 | > 100 | 7 | CCCC1(CCCNC)Cc2ccccc2N(c2ccccc2)C1=O (racemic) | –
3 | – | > 200 | 128 | 47 | CCC1(CCCNC)Cc2cc(Cl)ccc2N(c2ccc(C)cc2)C1=O (racemic) | –
9 | – | > 200 | 160 | 11 | CCCC1(CCCNC)Cc2ccccc2N(c2ccc(C)cc2)C1=O (racemic) | –
9 | 9 | > 200 | > 100 | 146 | CNCCCC1(C)Cc2ccccc2N(c2cccc(C)c2)C1=O (racemic) | –
12 | 1 | > 200 | > 100 | 1430 | CNCCCC1Cc2ccccc2N(c2ccc(C(F)(F)F)cc2)C1=O (racemic) | –
7 | 15 | > 200 | > 100 | 6 | CNCCCC1Cc2cc(Cl)ccc2N(c2ccc(C)cc2)C1=O (racemic) | –
7 | – | > 200 | – | 150 | CNCCCC1(C(C)C)Cc2ccccc2N(c2ccc(C)cc2)C1=O (racemic) | –
24 | 0 | – | – | – | CNCCCC1Cc2ccccc2N(c2ccccc2)C1=O (racemic) [listing 2 of 2 here] | –
– | – | > 200 | > 100 | 38 | CNCCC1Cc2ccccc2N(c2ccccc2)C1=O (single isomer, unassigned; isomer 1) [listing 1 of 2 here] | –
– | – | > 200 | > 100 | 8 | CNCCCC1Cc2ccccc2N(c2ccccc2)C1=O (single isomer, unassigned; isomer 1) [listing 1 of 2 here] | –
13 | 1 | – | – | – | CNCCC1Cc2ccccc2N(c2ccccc2)C1=O (single isomer, unassigned; isomer 1) [listing 2 of 2 here] | –
11 | 5 | – | – | – | CNCCCC1Cc2ccccc2N(c2ccccc2)C1=O (single isomer, unassigned; isomer 1) [listing 2 of 2 here] | –
– | – | > 200 | > 100 | 54 | CNCCC1Cc2ccccc2N(c2ccccc2)C1=O (stereo in doubt) [listing 1 of 2 here] | –
– | – | > 200 | > 100 | 190 | CNCCCC1Cc2ccccc2N(c2ccccc2)C1=O (stereo in doubt) [listing 1 of 2 here] | –
9 | 9 | – | – | – | CNCCC1Cc2ccccc2N(c2ccccc2)C1=O (stereo in doubt) [listing 2 of 2 here] | –
5 | 4 | – | – | – | CNCCCC1Cc2ccccc2N(c2ccccc2)C1=O (stereo in doubt) [listing 2 of 2 here] | –

SMILES | Activity [1] [%] | Activity [2] [%] | Ki [3] [nM] | Ki [4] [nM] | Ki [5] [nM] | Activity [6] [%]
CNCCCCC1Cc2ccccc2N(c2ccccc2)C1=O (centres undefined) | 12 | -3 | > 200 | > 100 | > 200 | 53
CNCCCC1(C)Cc2ccccc2N(c2ccc(C(C)C)cc2)C1=O (racemic) | 2 | 5 | > 200 | > 100 | > 200 | 18
CNCCCC1(C)Cc2ccccc2N(c2cc(Cl)cc(Cl)c2)C1=O (racemic) | 41 | 10 | > 200 | > 100 | > 200 | 39
